Data reported in US20060165683A1, “Methods and compositions for control of bone formation via modulation of sympathetic tone” (priority 2001, published 2006).

Columns and labels:
[1] = tested on: osteoblasts in calvariae of newborn mice; experiment: In vivo osteoblast proliferation assay (BrdU labeling, calvariae); parameters: species or system mouse; settings: newborn wt mice treated daily for 5 days; 40 μg isoproterenol or 4 μg dexamethasone
Method: Specimens were embedded in paraffin and sectioned at 6 μm. Brains were stained with 0.1% cresyl violet using standard procedures. Immunohistochemistry was performed according to standard protocols (see, e.g., Ausubel, 1995, Current Protocols in Molecular Biology, New York). […] BrdU incorporation was detected by immunohistochemistry using Zymed BrdU staining kit (Zymed Laboratories Inc.). Four pups per treatment were analyzed and 10 calvariae sections were counted per animal. NovaRED was used as a chromogenic peroxidase substrate. Sections were counterstained with hematoxylin.

[2] = tested on: primary osteoblasts; experiment: Gene expression and apoptosis in primary osteoblasts; type: cell-based, mouse
Method: Primary osteoblast cultures were established as previously described (see, e.g., Ducy et al., 2000, Cell 100: 197-207) and maintained in αMEM/0.1 mg/ml ascorbic acid supplemented with 10% FBS. SaOS-2 were grown in MEM/10% FBS. For cAMP assay confluent cultures were incubated with serum free medium containing 100 μM IBMX (3-isobutyl-1-methylxanthine, Sigma) for 8 minutes before PBS, PTH(1-34) (Bachem), isoproterenol, norepinephrine, phenylephrine (Sigma) or propranolol were added for 5 min. Intracellular cAMP concentration was measured by immunoassay (R&D Systems). For gene expression analyses, primary osteoblasts were treated for 72 hours with appropriate drugs in 0.1% FBS. Hormone serum levels were quantified using immunoassays kits from Peninsula Laboratories (Insulin) or Alpco Diagnostics (leptin). Deoxypyridinoline cross-links and Creatinine were measured in morning urines using the Quidel kits. a1(I) leptin bioactivity was verified by cotransfection of 293 cells expressing ObRb with a STAT3-responsive-luc reporter construct, pSVβgal plasmid and a1(I) leptin expression vector or mock. Twenty-four hours later luciferase and β-galactosidase activities were measured. Data represents ratios of luciferase/β-galactosidase activities, and values are mean of 6 independent transfection experiments.
To elucidate the bases of the antiosteogenic effect of isoproterenol in vivo, osteoblast proliferation, gene expression and apoptosis were studied.

[3] = tested on: propranolol-treated wt mice; experiment: Leptin ICV infusion in propranolol-treated mice; type: in vivo, mouse; settings: centrally delivered leptin
Method: Wildtype (C57BL/6J) and mutant (C57BL/6J A^y/a, C57BL/6J ob/ob) mice were obtained from the Jackson laboratory and adrenal medullectomized mice from Harlan Tecklad laboratory. Dbh−/− mice were rescued as previously described (Thomas et al., 1998, Neurochem 70:2468-2476). Isoproterenol (Sigma) was injected intraperitoneally (ip) once daily for 6 weeks at 30 mg/kg (wt) or 3 mg/kg (ob/ob). Propranolol (Sigma) was added to the drinking water at a concentration of 0.5 g/l. For ICV infusion, a 28-gauge cannula (Brain infusion kit II, Alza) was implanted into the third ventricle as previously described infusing human leptin (Sigma) at 8 ng/hr or MT-II at 125 ng/hr (Phoenix Pharmaceuticals) for 28 days (see, e.g., Ducy et al., 2000, Cell 100: 197-207). The cannula was connected to an osmotic pump (Alza) placed in the dorsal subcutaneous space of the animal. For parabiosis longitudinal incisions were made in the skin and in the peritoneal cavity along one side on each mouse. Edges of the incisions were connected by suture to induce coelioanastomosis. Cross-circulation was quantified by injecting 1 ml/kg 0.25% Evans blue into the tail vein of one mouse of the parabiosed pair. After 30 min. blood was collected from both mice by retroorbital bleeding and the blood exchange rate was calculated according to standard techniques (see, e.g., Harris & Martin, 1984, Am J Physiol 247:R380-386). […]

[4] = primary osteoblasts, 72 hours, 0.1% FBS, Northern blot

Row | Molecule | number of BrdU positive cells in calvariae compared to control mice (osteoblast proliferation) [1] | apoptosis: Caspase 3 expression and Annexin-V staining levels ([2]; isoproterenol-treated versus control osteoblasts) | expression of Cbfa1 [2, 4] | expression of a1(I) collagen [2, 4] | bone mass [3] | fat pads [3]
1 | CC(C)NCC(O)c1ccc(O)c(O)c1 (stereo not drawn) [isoproterenol] | nearly two-fold reduction | did not observe any change | decreased | decreased | – | –
2 | leptin: polypeptide hormone, product of the ob gene; human leptin (Sigma) infused ICV (protein) VPIQKVQDDTKTLIKTIVTRINDISHTQSVSAKQRVTGLDFIPGLHPILSLSKMDQTLAVYQQVLTSLPSQNVLQIANDLENLRDLLHLLAFSKSCSLPQTSGLQKPESLDGVLEASLYSTEVVALSRLQGSLQDILQQLDVSPEC | – | – | – | – | did not affect | disappearance
